Where a name gives a salt, the structure may show the parent alone.
Tests used:
[1] = target: T1, Human thyroid hormone receptor β1 (hThR β1) (Homo sapiens, UniProt P10828); assay: Binding experiments: displacement of 125I-T-3 from hThR β1; settings: [hThRβ]=5.0×10^-11 M; [125I-T3]=2.0×10^-10 M; pH 7,5; incubated over night (16-20 hours); not above +4° C
T1 construct: made in house; host or cells: insect cells, recombinant baculovirus
T1 sequence (P10828 1-461): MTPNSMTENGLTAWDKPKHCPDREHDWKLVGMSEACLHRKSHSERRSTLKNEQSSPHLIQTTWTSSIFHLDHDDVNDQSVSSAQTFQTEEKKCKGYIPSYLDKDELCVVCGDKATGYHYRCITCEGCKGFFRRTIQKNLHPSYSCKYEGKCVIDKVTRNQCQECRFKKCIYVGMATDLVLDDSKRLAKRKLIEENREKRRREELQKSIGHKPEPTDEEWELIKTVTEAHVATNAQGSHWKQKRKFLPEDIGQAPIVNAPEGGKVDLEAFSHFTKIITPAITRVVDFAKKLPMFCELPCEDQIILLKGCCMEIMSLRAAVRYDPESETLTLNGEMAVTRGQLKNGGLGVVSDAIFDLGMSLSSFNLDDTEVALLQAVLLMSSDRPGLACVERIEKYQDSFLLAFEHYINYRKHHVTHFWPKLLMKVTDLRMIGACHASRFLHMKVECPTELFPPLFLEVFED
Experimental: Human thyroid hormone receptor β1 (hThR β1) was expressed in insect cells using a recombinant baculovirus (Barkhem T., et al. The Journal of Steroid Biochemistry and Molecular Biology: Vol 38, No 6 (1991) p 667).
Solutions of hThR β1 and of ^125 I-T-3 were made in E400 (K2 HPO4 =20 mM, KCl=400 mM, MgCl2 =l mM, EDTA=0,5 mM, monothioglycerol=6 mM, glycerol 8,7% (v/v), histones (type 11AS) 10 μg/ml pH=7,5). Histones and Monothioglycerol were purchased from Sigma (St. Louis, Mo., USA), the other compounds in E400 were from Merck (Darmstadt, BRD). […] Stock solutions of the compound (011) (20 mM) was made in 5% EtOH/1 mM NaOH.
For convenience the incubations were performed over night (16-20 hours).
The incubation was stopped by the loading of 180 μl incubation mixture on a Quik-Sep Sephadex G-25 column (#9041-35-4 ISOLAB, Akron, Ohio, USA). The peak of protein-bound 125 I-T-3 was eluted with 1 ml E400 and collected in a test tube (passage of free T-3 through column is delayed). The eluted radioactivity was measured in a gamma-counter.
All incubations and dilutions were made in polypropylene tubes. Great care was taken to avoid exposure of hThR β1 to temperatures above +4° C.
(DeLean, A., et al, Am. J. Physiol. 235: E97-E102. (1978)).
The calculations were performed in KaleidaGraph™ 2.0.2 (Adelbeck Software) on a Macintosh IIcx computer.
Experiments conducted with [hThRβ]=5.0×10^-11 M and with [^125 I-T3 ]=2.0×10^-10 M

T-3 receptor = assay: biological assay, such as the method of Westerfield et al. (T-3 receptor antagonism); settings: "can be shown" by a biological assay such as Westerfield et al.; no data given
[2] = system: rat growth hormone (rGH) mRNA levels in cultured rat pituitary cells; settings: dose dependent; cited from earlier work
[3] = system: isolated intestine of the guinea-pig; settings: cited from earlier work
[4] = system: coronary vessels of the heart of the rabbit; settings: cited from earlier work

Structure (SMILES)	IC50 [1] [µM]	T-3 receptor antagonism (T-3 receptor)	inhibition of T-3 induced increase in rGH mRNA levels [2]	spasmolytic activity [3]	dilatory effects on coronary vessels [4]
CCN(CC)CCOc1c(I)cc(C(=O)c2c(C)oc3ccccc23)cc1I [(003), 2-methyl-3-(3,5-diiodo-4-(2-N,N-diethylaminoethoxy)-benzoyl)-benzofuran hydrochloride]	10	T-3 receptor antagonists			
CN(C)CCOc1c(I)cc(C(=O)c2ccc(O)c(I)c2)cc1I [(024), 4'-hydroxy-3'-iodo-3,5-diiodo-4-(2-N,N-dimethylaminoethoxy))benzophenon hydrochloride]	11	T-3 receptor antagonists			
CCCCc1oc2ccccc2c1C(=O)c1ccc(O)c(I)c1 [(029), 2-butyl-3-(3-iodo-4-hydroxybenzoyl)benzofuran]	3.2	T-3 receptor antagonists			
CCCCc1oc2ccccc2c1C(=O)c1cc(I)c(OCCN(CC)CC)c(I)c1 [Amiodarone]			inhibit T-3 induced increase in rat growth hormone (rGH) mRNA levels		
CCCCc1oc2ccccc2c1C(=O)c1cc(I)c(OCC(=O)O)c(I)c1 [(005), 2-n-butyl-3-(3,5-diiodo-4-carboxymethoxy-benzoyl)benzofuran]	4	T-3 receptor antagonists			
Cc1oc2ccccc2c1C(=O)c1cc(I)c(O)c(I)c1 [(011), 2-methyl-3-(3,5-diiodo-4-hydroxy-benzoyl)benzofuran]	2.5	T-3 receptor antagonists		spasmolytic activity	some dilatory effects on the coronary vessels

Second part, led by results:

IC50 [1] [µM]	T-3 receptor antagonism (T-3 receptor)	Structure (SMILES)	inhibition of T-3 induced increase in rGH mRNA levels [2]	spasmolytic activity [3]	dilatory effects on coronary vessels [4]
8	T-3 receptor antagonists	Cc1oc2ccccc2c1Cc1cc(I)c(OCC(=O)O)c(I)c1 [(015), 2-methyl-3-(3,5-diiodo-4-carboxymethoxybenzyl)benzofuran]			
0.42	T-3 receptor antagonists	Oc1ccc(Cc2cc(I)c(O)c(I)c2)cc1I [(032), 4', 4-dihydroxy-3'3,5-triiodo-diphenylmethan]			
3.6	T-3 receptor antagonists	CCCCc1oc2ccccc2c1C(O)c1cc(I)c(OCCN(CC)CC)c(I)c1 (stereo not shown) [(001), 3,5-diiodo-4-(2-N,N-diethylaminoethoxy)phenyl-(2-butyl-benzofur-3-yl)methanol hydrochloride]			
